Ki data for one molecule are collected here from BindingDB's records for doi:10.1021/jm00403a001 (Smith Kline & French Laboratories, 1988).

This experiment concerns the target Vasopressin V2 receptor (Canis familiaris). As to the kind of experiment: In vitro antagonist activity was measured by inhibition of vasopressin-stimulated adenylate cyclase in renal medullary preparation in dog.

Usually Ki stands for a measure of affinity in units of concentration, obtained from inhibition or displacement. In turn, `CCOc1ccc(C[C@H]2NC(=O)CC3(CCCCC3)CCC[C@@H](C(=O)N3CCC[C@H]3C(=O)N[C@@H](CCCN=C(N)N)C(N)=O)NC(=O)[C@H](CC(N)=O)NC(=O)[C@H](C(C)C)NC(=O)[C@H](Cc3ccccc3)NC2=O)cc1` [1-[13-Benzyl-19-carbamoylmethyl-10-(4-ethoxy-benzyl)-16-isopropyl-8,11,14,17,20-pentaoxo-9,12,15,18,21-pentaaza-spiro[5.19]pentacosane-22-carbonyl]-pyrrolidine-2-carboxylic acid (1-carbamoyl-4-guanidino-butyl)-amide] showed a Ki of 1 mM. That is a millimolar value.
